In ChEMBL document CHEMBL1153462, “Ulmosides A and B: flavonoid 6-C-glycosides from Ulmus wallichiana, stimulating osteoblast differentiation assessed by alkaline phosphatase” (Bioorg Med Chem Lett, 2009):
Active and inactive are the calls of the source. The calls are words filed in the database; no cut-off is given here.

Key:
[1] = tested on: Calvarial cell; experiment: Osteogenic activity in neonatal Sprague-Dawley rat calvarial cell culture assessed as stimulation of differentiation; assay type: functional, cell-based
[2] = tested on: Osteoblast; experiment: Osteogenic activity in neonatal Sprague-Dawley rat osteoblasts assessed as stimulation of alkaline phosphatase activity at 100 pM to 10 nM; assay type: functional, cell-based

| SMILES | Activity [1] | Activity [2] |
| --- | --- | --- |
| O=C1c2c(cc(O)c([C@@H]3O[C@H](CO)[C@@H](O)[C@H](O)[C@H]3O)c2O)O[C@@H](c2ccc(O)cc2)[C@@H]1O | Active | Active |
| O=c1c(O)c(-c2ccc(O)c(O)c2)oc2cc(O)c([C@@H]3O[C@H](CO)[C@@H](O)[C@H](O)[C@H]3O)c(O)c12 | Active | Active |
| O=C1C[C@H](c2ccc(O)cc2)Oc2cc(O)c([C@@H]3O[C@H](CO)[C@@H](O)[C@H](O)[C@H]3O)c(O)c21 | Active | Active |
| O=C1c2c(cc(O)c([C@@H]3O[C@H](CO)[C@@H](O)[C@H](O)[C@H]3O)c2O)O[C@@H](c2ccc(O)c(O)c2)[C@@H]1O | Active | Active |
